This is an account of results in ChEMBL document CHEMBL3039007, “Structure-based identification of OATP1B1/3 inhibitors” (Mol Pharmacol, 2013).

In data set [1] the target is T1, Solute carrier organic anion transporter family member 1B3 (Homo sapiens, UniProt Q9NPD5).
T1 sequence (Q9NPD5 whole entry): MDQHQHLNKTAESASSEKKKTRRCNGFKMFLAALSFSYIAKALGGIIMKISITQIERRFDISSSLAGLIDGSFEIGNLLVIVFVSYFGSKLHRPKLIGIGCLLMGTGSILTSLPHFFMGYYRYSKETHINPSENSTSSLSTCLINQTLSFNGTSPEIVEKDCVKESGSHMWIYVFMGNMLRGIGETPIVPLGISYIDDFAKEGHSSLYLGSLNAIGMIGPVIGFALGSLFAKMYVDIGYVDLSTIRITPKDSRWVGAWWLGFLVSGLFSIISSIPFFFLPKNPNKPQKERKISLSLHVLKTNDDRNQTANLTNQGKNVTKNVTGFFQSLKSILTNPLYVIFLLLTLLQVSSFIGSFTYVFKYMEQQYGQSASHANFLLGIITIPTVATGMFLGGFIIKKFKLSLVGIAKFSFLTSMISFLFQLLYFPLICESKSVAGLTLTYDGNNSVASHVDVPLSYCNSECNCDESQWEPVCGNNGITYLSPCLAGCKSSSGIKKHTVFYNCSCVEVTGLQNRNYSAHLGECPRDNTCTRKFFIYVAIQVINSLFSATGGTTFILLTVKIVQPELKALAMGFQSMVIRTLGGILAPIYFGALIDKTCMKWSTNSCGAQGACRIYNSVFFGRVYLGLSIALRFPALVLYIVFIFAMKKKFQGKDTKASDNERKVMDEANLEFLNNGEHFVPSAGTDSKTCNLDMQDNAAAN
The conditions noted are these: chinese hamster, cho, 10 µM.

In data set [2] the target is T2, Solute carrier organic anion transporter family member 1B1 (Homo sapiens, UniProt Q9Y6L6).
T2 sequence (Q9Y6L6 whole entry): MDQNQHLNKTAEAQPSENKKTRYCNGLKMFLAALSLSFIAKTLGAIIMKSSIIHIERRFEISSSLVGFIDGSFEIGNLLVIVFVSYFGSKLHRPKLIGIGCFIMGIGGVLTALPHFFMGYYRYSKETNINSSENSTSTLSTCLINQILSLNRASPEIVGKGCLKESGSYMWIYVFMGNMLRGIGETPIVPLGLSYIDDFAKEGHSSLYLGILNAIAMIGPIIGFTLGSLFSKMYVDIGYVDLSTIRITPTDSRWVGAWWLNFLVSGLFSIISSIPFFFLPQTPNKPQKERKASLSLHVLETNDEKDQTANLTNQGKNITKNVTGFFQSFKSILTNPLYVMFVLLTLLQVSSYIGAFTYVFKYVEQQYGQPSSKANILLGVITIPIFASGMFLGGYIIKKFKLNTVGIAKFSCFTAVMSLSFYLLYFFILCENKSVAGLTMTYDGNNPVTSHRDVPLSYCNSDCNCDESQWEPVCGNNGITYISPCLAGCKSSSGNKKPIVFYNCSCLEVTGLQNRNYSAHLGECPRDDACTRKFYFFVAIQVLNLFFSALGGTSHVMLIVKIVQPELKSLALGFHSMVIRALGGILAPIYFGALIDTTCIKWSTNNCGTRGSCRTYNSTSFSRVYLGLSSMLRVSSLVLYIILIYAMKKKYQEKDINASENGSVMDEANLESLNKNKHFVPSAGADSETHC
The note with it: chinese hamster, cho, 10 µM.

Each structure is given as a SMILES string.

For the compound `C[C@@]12C[C@@]3(O)O[C@@H](O1)[C@]1(COC(=O)c4ccccc4)[C@H]3C[C@@]12O[C@@H]1O[C@H](CO)[C@@H](O)[C@H](O)[C@H]1O` [PAEONIFLORIN], the values for the residual activity in data set [1] and in data set [2] were 101.8% and 109.5%, respectively.

Consider `N[C@H](C(=O)O)[C@@H]1CC(Cl)=NO1` [ACIVICIN], for which the residual activity in data set [1] stood at 113.3%; in data set [2], 137.7%.

Take `N=C(N)c1ccc(OCCCCCOc2ccc(C(=N)N)cc2)cc1.O=S(=O)(O)CCO`: the residual activity in data set [1] is reported as 156%; in data set [2] it was 99.74%.

With `C=C1C(N)CC2CC1C2(C)C` (stereo not drawn) [3-AMINO-beta-PINENE], the figures for the residual activity in data set [1] and in data set [2] were 104.4% and 92.27%, respectively.

Regarding `OCc1ccccc1O[C@@H]1O[C@H](CO)[C@@H](O)[C@H](O)[C@H]1O` [SALICIN], the results for the residual activity in data set [1] and in data set [2] were 97.32% and 85.64%, respectively.

Take `COC(=O)C[C@H]1C(C)(C)C2(O)OC34CC2C(=O)[C@]1(C)C3CC[C@]1(C)C4=CC(=O)O[C@H]1c1ccoc1` (stereo partly drawn) [8beta-HYDROXYCARAPIN, 3,8-HEMIACETAL]: the residual activity in data set [1] was found to be 49.62%; in data set [2], 28.54%.

As to `O=C(O)CN(CCN(CC(=O)O)CC(=O)O)CC(=O)O` [EDETIC ACID], the residual activity in data set [1] is given as 82.24%; in data set [2], 81.77%.

In the case of `CC(C)(Oc1ccc(Cl)cc1)C(=O)O` [CLOFIBRIC ACID], the values for the residual activity in data set [1] and in data set [2] were 99.14% and 111.2%, respectively.

Take `CC1COc2c(N3CCN(C)CC3)c(F)cc3c(=O)c(C(=O)O)cn1c23` (stereo not given) [OFLOXACIN]: the residual activity in data set [1] is on record as 89.51%; in data set [2], 65.85%.

On to `COc1cc2c(cc1OC)C1(O)C(=O)c3ccc(O)c(C(=O)O)c3OC1CO2` (stereo not given) [12a-HYDROXY-9-DEMETHYLMUNDUSERONE-8-CARBOXYLIC ACID], for which the residual activity in data set [1] is on record as 86.59%; in data set [2], 215.8%.

Consider `CO[C@H]1[C@H](O)[C@H](O[C@H]2CC[C@@]3(C)[C@H](CC[C@@H]4[C@@H]3CC[C@]3(C)[C@@H](C5=CC(=O)OC5)CC[C@]43O)C2)O[C@@H](C)[C@@H]1O` [NERIIFOLIN], for which the residual activity in data set [1] amounted to 148.8%; in data set [2], 95.6%.

Regarding `O=C(O)c1cc2ccccc2[nH]1` [INDOLE-2-CARBOXYLIC ACID], the residual activity in data set [1] is reported as 117.8%; in data set [2] it was 121.4%.

In the case of `C/C=C(/C(=C/C)c1ccc(O)cc1)c1ccc(O)cc1` [DIENESTROL], the residual activity was determined as 61.94% in data set [1] and 48.7% in data set [2].

Turning to `COc1ccc(-c2cc(=O)c3c(O)cc(O)c(-c4cc(-c5cc(=O)c6c(O)cc(O)cc6o5)ccc4OC)c3o2)cc1` [ISOGINKGETIN], the residual activity was 63.51% in data set [1] and 36.16% in data set [2].

`C[C@@H]1C(=O)O[C@H]2C[C@@]34[C@H]5C[C@@H](C(C)(C)C)[C@]36[C@@H](OC(=O)[C@@H]6O)O[C@@]4(C(=O)O5)[C@]21O` [GINKGOLIDE A]: the residual activity in data set [1] worked out at 113.8%; in data set [2], 103.7%.

On to `CC1(C)C(=O)C=C[C@]2(C)[C@H]3CC[C@@]4(C)[C@H](c5ccoc5)OC(=O)[C@H]5O[C@]54[C@]3(C)C=C[C@@H]12`, for which the residual activity in data set [1] is 75.29%; in data set [2] it was 56.92%.

For `CCCc1occc(=O)c1/C=C/O` [2-PROPYL-3-HYDROXYETHYLENEPYRAN-4-ONE], the residual activity stood at 129.3% in data set [1] and 128.5% in data set [2].

Regarding `CCc1cccc(C)c1N(C(=O)CCl)C(C)COC` (stereo not given) [METOLACHOR], the residual activity in data set [1] was found to be 101.7%; in data set [2], 93.33%.

As to `CC1(C)O[C@H]2CC(=O)OC[C@]23[C@H]2CC[C@@]4(C)[C@H](c5ccoc5)OC(=O)[C@H]5O[C@]54[C@]2(C)C(=O)C[C@@H]13` [LIMONIN], the residual activity in data set [1] was found to be 92.09%; in data set [2], 102.2%.

As for `CCC1(c2ccccc2)C(=O)NCNC1=O` [PRIMIDONE], the residual activity in data set [1] amounted to 90.17%; in data set [2] it was 78.09%.

As to `CC(=O)O[C@@H]1[C@H]2CC[C@H]3[C@@](C)(O)[C@@H]4C[C@H](O)C(C)(C)[C@@]4(O)[C@H](O)C[C@@]13C[C@@]2(C)O` [GRAYANOTOXIN I], the figures for the residual activity in data set [1] and in data set [2] were 95.98% and 79.68%, respectively.

For the compound `Oc1ccc2c(c1)O[C@H](c1ccc(O)c(O)c1)[C@@H](O)C2` [FISETINIDOL], the residual activity in data set [1] was 95.23%; in data set [2] it was 74.52%.

As to `Cc1ccc(C(=O)C(C)CN2CCCCC2)cc1.Cl` (stereo not given) [TOLPERISONE HYDROCHLORIDE], the residual activity in data set [1] was determined as 112.7%; in data set [2] it was 96.3%.

In the case of `CC1=CC(=O)CC(C)(C)C1(O)/C=C/C(C)=C\C(=O)O` (racemic) [ABSCISIC ACID], the residual activity is reported as 92.91% in data set [1] and 70.85% in data set [2].

As for `CCOc1ccc(C(=O)c2ccc(O)c(O)c2O)cc1` [2,3,4-TRIHYDROXY-4'-ETHOXYBENZOPHENONE], the residual activity in data set [1] was found to be 99.48%; in data set [2] it was 134.1%.

With `CCn1cc(C(=O)O)c(=O)c2cnc(N3CCNCC3)nc21` [PIPEMIDIC ACID], the residual activity in data set [1] is listed as 131.1%; in data set [2] it was 111.8%.

`CC(C[N+](C)(C)C)OC(N)=O.[Cl-]` (stereo not given) [BETHANECHOL CHLORIDE]: the figures for the residual activity in data set [1] and in data set [2] were 100% and 111.1%, respectively.

For the compound `COc1cccc(C=O)c1OC`, the residual activity in data set [1] worked out at 100.4%; in data set [2], 107.3%.

Take `COc1c2ccccc2nc2occc12` [DICTAMNINE]: the residual activity in data set [1] is given as 118.6%; in data set [2], 151.5%.

Turning to `C[C@]12CC[C@@H](O)C[C@H]1CCc1ccccc12` [3alpha-HYDROXY-4,4-BISNOR-8,11,13-PODOCARPATRIENE], the residual activity came to 100.9% in data set [1] and 77.88% in data set [2].

In the case of `O=C(O)COc1ccc(Cl)cc1Cl` [2,4-DICHLOROPHENOXYACETIC ACID], the residual activity in data set [1] was 104.1%; in data set [2], 111.6%.

`CC(=O)NCCc1c[nH]c2ccc(O)cc12` [ACETYLSEROTONIN]: the residual activity in data set [1] is recorded as 91.29%; in data set [2] it was 100.7%.

Take `CC(C)[C@@H]1CC[C@@H](C)C[C@H]1OC(=O)c1ccccc1` [MENTHYL BENZOATE]: the residual activity was 101.1% in data set [1] and 100.9% in data set [2].

For `CC1=CC(=O)C2=C(C)CC[C@@H]3[C@H](OC(=O)[C@H]3C)[C@@H]12` [DESACETOXYMATRICARIN], the residual activity in data set [1] is given as 118.5%; in data set [2], 129%.

Consider `CC(=O)N[C@@H](CS)C(=O)O` [ACETYLCYSTEINE], for which the residual activity in data set [1] worked out at 89.21%; in data set [2] it was 82.21%.

Turning to `CC(=O)N[C@@H](Cc1c[nH]c2ccccc12)C(=O)O` [ACETYLTRYPTOPHAN], the residual activity in data set [1] came out at 85.99%; in data set [2] it was 63.36%.

For `COC(=O)Nc1nc2ccc(C(=O)c3ccccc3)cc2[nH]1` [MEBENDAZOLE], the residual activity in data set [1] is reported as 99%; in data set [2] it was 159.5%.

With `CC(=O)OCC1=C(C(=O)[O-])N2C(=O)[C@@H](NC(=O)Cc3cccs3)[C@H]2SC1.[Na+]` [CEPHALOTHIN SODIUM], the residual activity in data set [1] was 66.3%; in data set [2], 45.11%.

With `NC[C@H](O)c1ccc(O)c(O)c1` [NOREPINEPHRINE], the residual activity is on record as 102.3% in data set [1] and 112.9% in data set [2].

With `CN1Cc2c(N)cccc2C(c2ccccc2)C1.O=C(O)/C=C\C(=O)O` (stereo not given) [NOMIFENSINE MALEATE], the residual activity in data set [1] stood at 79.07%; in data set [2] it was 59.46%.

What is called residual activity is the signal under treatment as a percentage of the control signal.
